Source: patent US11505576B2, “Polypeptides based on a scaffold” (AFFIBODY AB, priority 2018, dated 2022)

Key:
[1] = Fraction of soluble product on expression in E. coli, estimated from SDS-PAGE; assay type: physicochemical; conditions: Table 7; Ylib002Naive.I selection; MGSSHHHHHHGSS-[Y#####]-A
In short: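 E. coli T7E2 cultures with 50 μg/ml kanamycin were grown at 30-37 °C (EnPresso), induced with 0.5 mM IPTG at OD600 ~10 and harvested after 16 h. Alternatively, cultures were grown at 37 °C in TSB-YE, induced with 0.2 mM IPTG at OD600=2 and harvested after 5 h. Soluble and insoluble fractions were estimated by SDS-PAGE.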

C4 = assay: Kinetic analysis using surface plasmon resonance (Biacore T200), immobilized C4; assay type: binding; conditions: Table 7; MGSSHHHHHHGSS-[Y#####]-A
Description: Kinetic constants (ka and kd) and affinities (KD) were determined for His6-tagged Y variants using a Biacore T200 instrument (GE Healthcare). Target proteins C4, IL-6 and insulin, respectively, were immobilized in separate flow cells on the carboxylated dextran layer of different CM5 chip surfaces (GE Healthcare). Immobilization was performed using amine coupling chemistry according to the manufacturer's protocol and PBS pH 7.4 supplemented with 0.1 Tween20 (PBST 0.1%) as running buffer. The ligand immobilization levels on the surfaces were 3280-8830 RU for C4, 495-1184 RU for IL-6, and 270-282 RU for insulin. One flow cell surface on each chip was activated and deactivated for use as blank during analyte injections. In the kinetic experiment, PBST 0.1% was used as running buffer at a flow rate of 30 μl/min. The analytes, i.e. Y variants, were each diluted in PBST 0.1 buffer at concentrations of 1000, 500, 100, 50 and 10 nM and injected for 5 min, followed by dissociation in running buffer for 3 min. After dissociation, the surfaces were regenerated with one injection of 30 μl 10 mM HCl. Kinetic constants were calculated from the sensorgrams using the Langmuir 1:1 model of Biacore T200 Evaluation software 2.0 (GE Healthcare).
Produced Y variants were subjected to CD and SPR analyses according to the methods described in Example 1.
The Y variants were cloned, produced and characterized according to the general methods described in Example 1. Produced Y variants with point mutations and/or N-terminal or C-terminal extensions were subjected to CD and SPR analyses as described in Example 1.
Produced Y variants were subjected to CD and SPR analyses according to the methods described in Example 1. In addition, CD spectra of selected IL-6 binding variants were also recorded at 60, 70, 80 and 90° C.

[2] = Circular dichroism spectroscopy analysis (CD spectra, variable temperature measurement, refolding); assay type: physicochemical; conditions: Table 7; MGSSHHHHHHGSS-[Y#####]-A
In short: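 Y variants at 0.5 mg/ml in PBS were scanned from 250 to 195 nm at 20° C. in a 1 mm cell. Tm came from the 221 nm signal during heating from 20 to 90° C. at 5° C./min, and a second 20° C. spectrum after heating assessed refolding. Selected IL-6 binders were also recorded at 60, 70, 80 and 90° C.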

Y02303: C4 binding Y variant from Ylib002Naive.I, SEQ ID NO:34 (LAEAKEAAIAELDSKGVGAEEIKWIQNAWSVEGVQIMKQQILAELPA; Engineered C4 binding Y variant)
Estimated soluble fraction [1]: 100% | Kd (C4): 2200 nM | ka (C4): 96000 M⁻¹ s⁻¹ | kd (C4): 0.21 s⁻¹ | Tm [2]: 43 °C

Y02309: C4 binding Y variant from Ylib002Naive.I, SEQ ID NO:35 (LAEAKEAAIAELDSKGVGADLIKKIQKAESVEGVQFWKQEILATLPA; Engineered C4 binding Y variant)
Estimated soluble fraction [1]: 100% | Kd (C4): 70 nM | ka (C4): 36000 M⁻¹ s⁻¹ | kd (C4): 0.0025 s⁻¹ | Tm [2]: 56 °C

Y02330: C4 binding Y variant from Ylib002Naive.I, SEQ ID NO:37 (LAEAKEAAIAELDSKGVGAELIKKIQHAESVEGVQFWKQEILAYLPA; Engineered C4 binding Y variant)
Estimated soluble fraction [1]: 100% | Kd (C4): 48 nM | ka (C4): 96000 M⁻¹ s⁻¹ | kd (C4): 0.0046 s⁻¹ | Tm [2]: 49 °C

Y02337: C4 binding Y variant from Ylib002Naive.I, SEQ ID NO:38 (LAEAKEAAIAELDSKGVGAAEIKWIQHASTVEGVQGRKQQILAELPA; Engineered C4 binding Y variant)
Estimated soluble fraction [1]: 100% | Kd (C4): 1900 nM | ka (C4): 420000 M⁻¹ s⁻¹ | kd (C4): 0.81 s⁻¹ | Tm [2]: 31 °C

Y02358: C4 binding Y variant from Ylib002Naive.I, SEQ ID NO:39 (LAEAKEAAIAELDSKGVGADDIKLIQDAPSVEGVQEIKQFILAQLPA; Engineered C4 binding Y variant)
Estimated soluble fraction [1]: 100% | Kd (C4): 16 nM | ka (C4): 90000 M⁻¹ s⁻¹ | kd (C4): 0.0014 s⁻¹ | Tm [2]: 51 °C
